{"source": "patent EP0409903B1", "about": "“PROCESS FOR PREPARING POLYUNSATURATED FATTY ACIDS” (STAROIL LIMITED, priority 1988, dated 1989)", "origin": "cited, not measured here", "conditions": "ingestion of DHA in ester form and/or as the free acid; Hiroi at al., 1978", "data": [{"smiles": "CC/C=C\\C/C=C\\C/C=C\\C/C=C\\C/C=C\\C/C=C\\CCC(=O)O", "note": "[DHA, docosahexaenoic acid]", "values": [{"measurement": "DHA and EPA levels in plasmatic phospholipids", "value": "significantly increases"}]}]}
